Measurements: ChEMBL document CHEMBL1201862, “PubChem BioAssay data set” (2004)
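Grown in 96-well plates, cells were treated for 48 hours with each compound at five concentrations. Insufficient inhibition: endpoint recorded as highest concentration tested. GI50 is the concentration that inhibits growth by half.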 Activity calls are given as the source filed them. Rule as the data show it: active = GI50 up to about 1.1 µM and inactive = higher.

Experiments:
Assay in all cases: NCI anticancer screen, dose series, 48 h
SR = tested on: SR
NCI-H23 = tested on: NCI-H23
UACC-257 = tested on: UACC-257
COLO 205 = tested on: COLO 205
DMS-273 = tested on: DMS-273
UO-31 = tested on: UO-31
SK-OV-3 = tested on: SK-OV-3
OVCAR-4 = tested on: OVCAR-4
SNB-78 = tested on: SNB-78
786-0 = tested on: 786-0
NCI-H226 = tested on: NCI-H226
LXFL 529 = tested on: LXFL 529
XF498 = tested on: XF498
HL-60 = tested on: HL-60
SK-MEL-28 = tested on: SK-MEL-28
KM12 = tested on: KM12
HCC 2998 = tested on: HCC 2998
SW-620 = tested on: SW-620
UACC-62 = tested on: UACC-62
DLD-1 = tested on: DLD-1
SNB-19 = tested on: SNB-19
HCT-15 = tested on: HCT-15
KM-20L2 = tested on: KM-20L2
CCRF-CEM = tested on: CCRF-CEM
SK-MEL-2 = tested on: SK-MEL-2
NCI-H522 = tested on: NCI-H522
SF-268 = tested on: SF-268
TK-10 = tested on: TK-10
MOLT-4 = tested on: MOLT-4
HOP-92 = tested on: HOP-92
A549 = tested on: A549
HOP-18 = tested on: HOP-18
SF-295 = tested on: SF-295
U-251 = tested on: U-251
SN12C = tested on: SN12C
K562 = tested on: K562
NCI-H460 = tested on: NCI-H460
ACHN = tested on: ACHN
OVCAR-8 = tested on: OVCAR-8
SK-MEL-5 = tested on: SK-MEL-5
EKVX = tested on: EKVX
CAKI-1 = tested on: CAKI-1
RXF 393 = tested on: RXF 393
RXF 631 = tested on: RXF 631
SF-539 = tested on: SF-539
M19-MEL = tested on: M19-MEL
RPMI-8226 = tested on: RPMI-8226
IGROV-1 = tested on: IGROV-1
OVCAR-3 = tested on: OVCAR-3
M14 = tested on: M14
HOP-62 = tested on: HOP-62
HCT-116 = tested on: HCT-116
OVCAR-5 = tested on: OVCAR-5
HT-29 = tested on: HT-29
LOX IMVI = tested on: LOX IMVI

## CC(=O)O[C@H]1C=CC23OC(=O)[C@]1(C)[C@H]2[C@H](C(=O)O)C12CC(=O)[C@@](CO)(CC[C@H]13)C2
SR
  GI50: > 100 µM (inactive)
NCI-H23
  GI50: > 100 µM (inactive)
UACC-257
  GI50: > 100 µM (inactive)
COLO 205
  GI50: > 100 µM (inactive)
DMS-273
  GI50: > 100 µM (inactive)
UO-31
  GI50: > 100 µM (inactive)
SK-OV-3
  GI50: > 100 µM (inactive)
OVCAR-4
  GI50: > 100 µM (inactive)
SNB-78
  GI50: > 100 µM (inactive)
786-0
  GI50: > 100 µM (inactive)
NCI-H226
  GI50: > 100 µM (inactive)
LXFL 529
  GI50: > 100 µM (inactive)
XF498
  GI50: > 100 µM (inactive)
HL-60
  GI50: > 100 µM (inactive)
SK-MEL-28
  GI50: > 100 µM (inactive)
KM12
  GI50: > 100 µM (inactive)
HCC 2998
  GI50: > 100 µM (inactive)
SW-620
  GI50: > 100 µM (inactive)
UACC-62
  GI50: 75.7 µM (inactive)
DLD-1
  GI50: > 100 µM (inactive)
SNB-19
  GI50: > 100 µM (inactive)
HCT-15
  GI50: > 100 µM
KM-20L2
  GI50: > 100 µM (inactive)
CCRF-CEM
  GI50: > 100 µM (inactive)
SK-MEL-2
  GI50: > 100 µM (inactive)
NCI-H522
  GI50: > 100 µM (inactive)
SF-268
  GI50: > 100 µM (inactive)
TK-10
  GI50: > 100 µM (inactive)
MOLT-4
  GI50: > 100 µM (inactive)
HOP-92
  GI50: > 100 µM (inactive)
A549
  GI50: > 100 µM (inactive)
HOP-18
  GI50: > 100 µM (inactive)
SF-295
  GI50: > 100 µM (inactive)
U-251
  GI50: > 100 µM (inactive)
SN12C
  GI50: > 100 µM (inactive)
K562
  GI50: > 100 µM (inactive)
NCI-H460
  GI50: > 100 µM (inactive)
ACHN
  GI50: > 100 µM (inactive)
OVCAR-8
  GI50: > 100 µM (inactive)
SK-MEL-5
  GI50: > 100 µM (inactive)
EKVX
  GI50: > 100 µM (inactive)
CAKI-1
  GI50: > 100 µM (inactive)
RXF 393
  GI50: > 100 µM (inactive)
RXF 631
  GI50: > 100 µM (inactive)
SF-539
  GI50: > 100 µM (inactive)
M19-MEL
  GI50: > 100 µM (inactive)
RPMI-8226
  GI50: > 100 µM (inactive)
IGROV-1
  GI50: > 100 µM (inactive)
OVCAR-3
  GI50: > 100 µM (inactive)
M14
  GI50: > 100 µM (inactive)
HOP-62
  GI50: > 100 µM (inactive)
HCT-116
  GI50: > 100 µM (inactive)
OVCAR-5
  GI50: > 100 µM (inactive)
HT-29
  GI50: > 100 µM (inactive)
LOX IMVI
  GI50: > 100 µM (inactive)
